Where two headings read alike, the source gives them in different places.
Key:
[1] = target: PEX5-PEX14 complex (biotin-coupled PEX5 peptide, His-tagged T. brucei PEX14) (Trypanosoma brucei brucei, UniProt Q38CL4); test: biochemical; assay type: binding; details: 30 nM PEX5, 30 nM PEX14, quadruplicate
Excerpt: The assay uses two types of beads: donor beads are coupled with streptavidin, and acceptor beads are coupled with an anti His-tag antibody. Upon excitation with light of a wavelength of 680 nm the donor beads produce reactive oxygen species that travel in solution only for a limited distance. If the acceptor beads are within that travel distance, it will absorb the reactive oxygen and emit light in the range of 520-620 nm. […] Thus, PEX5-PEX14 complex dissociation by a ligand caused decrease in light emission as the donor and acceptor beads were separated. Typically, we used 30 nM PEX5, 30 nM PEX14 and bead concentrations of 5 μg/mL. The PEX5-PEX14 complex was incubated with varying concentrations of inhibitor for 1 hour. Next, the beads were added and the system allowed to equilibrate for another hour. The raw data were fitted to four parameter sigmoidal curves by Origin software and EC50 values calculated. Each measurement was performed in quadruplicate and every experiment was accompanied with blank and reference samples (using non-biotynylated PEX5 peptide as a binding competitor).

[2] = test system: T. brucei brucei bloodstream form parasites (strain Lister 427); test: Antitrypanosomal activity assay (resazurin; FIG. 2); assay type: cell-based; details: Trypanosoma brucei; 66 h + 6 h resazurin
Experimental: (A) The trypanosoma cell count and growth were evaluated at different doses of compounds of the invention.
Antitrypanosomal activity was tested on T. brucei brucei bloodstream from parasites (strain—Lister 427, VATMITat 1.2). Stock solutions of compounds (50 mM) were prepared in DMSO. Two fold serial dilutions of each compound (10 wells in each row) were prepared in 96 well plates in HMI111 medium (100 μl/well; quadruplicates; cf. also Hirumi et al., J. Parasitol. 75 (1989), 985-989). One well without compound, and one well with media alone were included in each row. […] The plates were incubated for 66 hours at 37° C. in the incubator with 5% CO2. 20 μl resazurin (Sigma, 0.125 mg/ml in Hanks Balanced Salt Solution) was added to all wells and the plate was further incubated for 6 hours. Change in color of resazurin (blue to pink) by living cells was measured with a 96 well plate reader (excitation at 530 nm, emission at 585 nm, filter cut-off: 570 nm). Percent inhibition values were calculated by setting the well without compound to “0% inhibition”.

[3] = read-out: AlphaScreen EC50 [μM] (±SD)

PEX5-PEX14 complex (biotin-coupled PEX5 peptide, His-tagged T. brucei PEX14), sequence (Q38CL4 1-366, one chain of several): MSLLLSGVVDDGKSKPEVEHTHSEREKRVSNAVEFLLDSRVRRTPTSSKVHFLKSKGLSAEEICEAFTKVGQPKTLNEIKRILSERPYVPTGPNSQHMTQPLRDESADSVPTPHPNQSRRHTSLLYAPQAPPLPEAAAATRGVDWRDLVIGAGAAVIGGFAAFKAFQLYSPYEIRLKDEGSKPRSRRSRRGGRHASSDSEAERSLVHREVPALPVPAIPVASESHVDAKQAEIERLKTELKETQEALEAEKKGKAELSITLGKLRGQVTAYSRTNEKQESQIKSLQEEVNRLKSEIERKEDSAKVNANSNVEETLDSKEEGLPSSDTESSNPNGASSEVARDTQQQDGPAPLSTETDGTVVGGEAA

SMILES: NC(=O)Cn1nc(C(=O)NCc2ccccc2)c2c1CCN(Cc1c[nH]c3ccccc13)C2 [Compound 4]
- EC50 [1, 3]: 1380 µM
- IC50 [2]: 51 µM

SMILES: COc1ccc(CN2CCc3[nH]nc(C(=O)NCc4cccc5ccccc45)c3C2)c2ccccc12 [Compound 5]
- EC50 [1, 3]: 16.5 µM
- IC50 [2]: 3.4 µM

SMILES: O=C(NCc1ccccc1)c1nn(-c2ccccc2)c2c1CN(Cc1c[nH]c3ccccc13)CC2 [Compound 6]
- EC50 [1, 3]: 18.3 µM
- IC50 [2]: 8 µM

SMILES: Cn1nc(C(=O)NCc2ccccc2)c2c1CCN(Cc1ccccc1)C2 [Compound 7]
- EC50 [1, 3]: 4530 µM
- IC50 [2]: 45 µM

SMILES: Cn1nc(C(=O)NCc2ccccc2)c2c1CCN(Cc1ccc(-c3ccccc3)cc1)C2 [Compound 9]
- EC50 [1, 3]: 27.8 µM
- IC50 [2]: 6.8 µM

SMILES: Cn1nc(C(=O)NCc2ccccc2)c2c1CCN(Cc1cccc(-c3ccccc3)c1)C2 [Compound 10]
- EC50 [1, 3]: 33.6 µM
- IC50 [2]: 7.4 µM

SMILES: Cn1nc(C(=O)NCc2ccccc2)c2c1CCN(Cc1c[nH]c3cc(OCc4ccccc4)ccc13)C2 [Compound 11]
- EC50 [1, 3]: 22.1 µM
- IC50 [2]: 1.1 µM

SMILES: Cn1nc(C(=O)NCc2ccccc2)c2c1CCN(Cc1cccc3ccccc13)C2 [Compound 12]
- IC50 [2]: 12 µM

SMILES: COc1ccc(CN2CCc3c(c(C(=O)NCc4cccc5ccccc45)nn3CCN3CCOCC3)C2)c2ccccc12 [Compound 13]
- EC50 [1, 3]: 6.72 µM
- IC50 [2]: 3.58 µM

SMILES: COc1ccc(CN2CCc3c(c(C(=O)NCc4cccc5ccccc45)nn3-c3cnccn3)C2)c2ccccc12 [Compound 14]
- EC50 [1, 3]: 11.9 µM
- IC50 [2]: 3.61 µM

SMILES: COc1ccc(CN2CCc3c(c(C(=O)NCc4cccc5ccccc45)nn3C3CN(C(=O)C(C)(C)C)C3)C2)c2ccccc12 [Compound 15]
- EC50 [1, 3]: 7.92 µM
- IC50 [2]: 1.47 µM

SMILES: COc1ccc(CN2CCc3c(c(C(=O)NCc4cccc5ccccc45)nn3C3CCCC3)C2)c2ccccc12 [Compound 16]
- EC50 [1, 3]: 10.6 µM
- IC50 [2]: 2.35 µM

SMILES: COc1ccc(CN2CCc3c(c(C(=O)NCc4cccc5ccccc45)nn3Cc3ccccc3)C2)c2ccccc12 [Compound 17]
- EC50 [1, 3]: 10.5 µM
- IC50 [2]: 2.56 µM

SMILES: COc1ccc(CN2CCc3c(c(C(=O)NCc4cccc5ccccc45)nn3C3CCC3)C2)c2ccccc12 [Compound 18]
- EC50 [1, 3]: 11.1 µM
- IC50 [2]: 1.85 µM

SMILES: CCc1ccc(CN2CCc3c(c(C(=O)NCc4ccccc4)nn3CCO)C2)cc1 [Compound 23]
- EC50 [1, 3]: 133 µM

SMILES: O=C(NCc1ccccc1)c1nn(CCO)c2c1CN(Cc1ccc(OC(F)(F)F)cc1)CC2 [Compound 24]
- EC50 [1, 3]: 80.4 µM
- IC50 [2]: 25 µM

SMILES: O=C(NCc1ccccc1)c1nn(CCO)c2c1CN(Cc1ccn(-c3ccccc3)c1)CC2 [Compound 27]
- EC50 [1, 3]: 196 µM
- IC50 [2]: 39 µM

SMILES: COC(=O)c1cccc2c(CN3CCc4c(c(C(=O)NCc5ccccc5)nn4CCO)C3)c[nH]c12 [Compound 28]
- EC50 [1, 3]: 155 µM

SMILES: CC(=O)c1ccc(CN2CCc3c(c(C(=O)NCc4ccccc4)nn3CCO)C2)cc1 [Compound 29]
- EC50 [1, 3]: 222 µM

SMILES: O=C(NCc1ccccc1)c1nn(CCO)c2c1CN(Cc1cc3ccccc3c3ccccc13)CC2 [Compound 30]
- EC50 ([1]; AlphaScreen EC50 [μM] (±SD)): 29.8 µM
- IC50 [2]: 6.6 µM

SMILES: Cn1nc(C(=O)NCc2ccc3ccccc3c2)c2c1CCN(Cc1c[nH]c3ccccc13)C2 [Compound 31]
- EC50 [1, 3]: 35.2 µM

SMILES: Cn1nc(C(=O)NCc2cccc3ccccc23)c2c1CCN(Cc1cccc3ccccc13)C2 [Compound 33]
- EC50 [1, 3]: 41.8 µM

SMILES: COc1ccc(CN2CCc3c(c(C(=O)NCc4cccc5ccccc45)nn3-c3ccccc3)C2)c2ccccc12 [Compound 37]
- EC50 [1, 3]: 7.61 µM
- IC50 [2]: 3.5 µM

SMILES: O=C(NCc1cccc2ccccc12)c1nn(CCO)c2c1CN(Cc1ccc(-c3ccccc3)cc1)CC2 [Compound 38]
- EC50 [1, 3]: 10.4 µM
- IC50 [2]: 3.7 µM

SMILES: O=C(NCc1cccc2ccccc12)c1nn(CCO)c2c1CN(Cc1cccc(-c3ccccc3)c1)CC2 [Compound 39]
- EC50 [1, 3]: 12.7 µM
- IC50 [2]: 5.5 µM

SMILES: O=C(NCc1cccc2ccccc12)c1nn(CCO)c2c1CN(Cc1cccc3cccnc13)CC2 [Compound 45]
- EC50 [1, 3]: 53.8 µM
- IC50 [2]: 10.7 µM

SMILES: O=C(NCc1cccc2ccccc12)c1nn(CCO)c2c1CN(Cc1ccc(C(F)(F)F)cc1)CC2 [Compound 48]
- EC50 [1, 3]: 34 µM
- IC50 [2]: 5.4 µM

SMILES: CCCc1ccc(CN2CCc3c(c(C(=O)NCc4cccc5ccccc45)nn3CCO)C2)cc1 [Compound 49]
- EC50 [1, 3]: 32.5 µM
- IC50 [2]: 2.7 µM

SMILES: O=C(NCc1cccc2ccccc12)c1nn(CCO)c2c1CN(Cc1cccc3cc[nH]c13)CC2 [Compound 53]
- EC50 [1, 3]: 39.8 µM
- IC50 [2]: 6.8 µM

SMILES: O=C(NCc1cccc2ccccc12)c1nn(CCO)c2c1CN(Cc1cccc3c1OCO3)CC2 [Compound 54]
- EC50 [1, 3]: 84.4 µM
- IC50 [2]: 19 µM

SMILES: Cc1nc2sccn2c1CN1CCc2c(c(C(=O)NCc3ccccc3)nn2CCO)C1 [Compound 63]
- EC50 [1, 3]: 171 µM

SMILES: O=C(NCc1ccccc1)c1nn(CCO)c2c1CN(CC1=CC(=O)C3C=C(Cl)C=CC3O1)CC2 (stereo not drawn) [Compound 64]
- EC50 [1, 3]: 132 µM

SMILES: CC(NC(=O)c1nn(CCO)c2c1CN(Cc1cnn(-c3ccccc3)c1)CC2)c1ccccc1 (stereo not drawn) [Compound 65]
- EC50 [1, 3]: 112 µM

SMILES: CC(NC(=O)c1nn(CCO)c2c1CN(Cc1ccc3ccoc3c1)CC2)c1ccccc1 (stereo not drawn) [Compound 66]
- EC50 [1, 3]: 147 µM

SMILES: O=C(c1nn(Cc2ccccn2)c2c1CN(Cc1ccccc1)CC2)N1CCc2ccccc2C1 [Compound 67]
- EC50 [1, 3]: 74.3 µM

SMILES: O=C(NCc1ccccc1)c1nn(CCO)c2c1CN(Cc1ccc3c(c1)OC=CO3)CC2 [Compound 68]
- EC50 [1, 3]: 159 µM

SMILES: CC(NC(=O)c1nn(CCO)c2c1CN(Cc1cccc3c1OCO3)CC2)c1ccccc1 (stereo not drawn) [Compound 69]
- EC50 [1, 3]: 151 µM

SMILES: Cn1nc(C(=O)NCc2ccccc2)c2c1CCN(Cc1noc3c1CCCC3)C2 [Compound 70]
- EC50 [1, 3]: 9.69 µM

SMILES: CCc1ccc(CN2CCc3c(c(C(=O)NCc4ccccc4)nn3CCO)C2)cc1 [Compound 71]
- EC50 [1, 3]: 150 µM

SMILES: O=C(NCc1ccccc1)c1nn(CCO)c2c1CN(Cc1ccccc1C(F)(F)F)CC2 [Compound 72]
- EC50 [1, 3]: 223 µM

SMILES: O=C(CC1CC1)N1CCc2c(c(C(=O)N3CCc4ccccc4C3)nn2Cc2ccccn2)C1 [Compound 73]
- EC50 [1, 3]: 220 µM

SMILES: O=C(NCc1ccccc1)c1nn(CCO)c2c1CN(Cc1ccccc1-c1ccco1)CC2 [Compound 74]
- EC50 [1, 3]: 78.3 µM

SMILES: COc1cc(CN2CCc3c(c(C(=O)NCc4ccccc4)nn3CCO)C2)cc2c1OCO2 [Compound 75]
- EC50 [1, 3]: 94.9 µM

SMILES: O=C(NCc1ccccc1)c1nn(CCO)c2c1CN(Cc1cccc(OC(F)F)c1)CC2 [Compound 76]
- EC50 [1, 3]: 148 µM

SMILES: C=C(C)C1CC=C(CN2CCc3c(c(C(=O)NCc4ccccc4)nn3CCO)C2)CC1 (stereo not drawn) [Compound 77]
- EC50 [1, 3]: 142 µM

SMILES: O=C(NCc1ccccc1)c1nn(CCO)c2c1CN(Cc1ccc(-c3ccccc3)cc1)CC2 [Compound 78]
- EC50 [1, 3]: 68.8 µM

SMILES: C=CCn1nc(C(=O)NCc2ccccc2)c2c1CCN(Cc1ccc3ncccc3c1)C2 [Compound 79]
- EC50 [1, 3]: 95.4 µM

SMILES: Cc1ccccc1-c1ccc(CN2CCc3c(c(C(=O)NCc4ccccc4)nn3CCO)C2)cc1 [Compound 80]
- EC50 [1, 3]: 45.9 µM

SMILES: O=C(NCc1ccccc1)c1nn(CCO)c2c1CN(CC(c1ccccc1)c1ccccc1)CC2 [Compound 81]
- EC50 [1, 3]: 74.9 µM

SMILES: O=C(NCc1ccccc1)c1nn(CCO)c2c1CN(Cc1cnn(-c3ccccc3)c1)CC2 [Compound 82]
- EC50 [1, 3]: 149 µM

SMILES: O=C(NCc1ccccc1)c1nn(CCO)c2c1CN(Cc1cccn1-c1ccccn1)CC2 [Compound 83]
- EC50 [1, 3]: 132 µM

SMILES: CC(NC(=O)c1nn(CCO)c2c1CN(CC1Cc3ccccc3CN1C)CC2)c1ccccc1 (stereo not drawn) [Compound 86]
- EC50 [1, 3]: 169 µM

SMILES: CC(NC(=O)c1nn(CCO)c2c1CN(C(=O)c1ncc3sccn13)CC2)c1ccccc1 (stereo not drawn) [Compound 87]
- EC50 [1, 3]: 230 µM

SMILES: COC(=O)c1ccc2c(CN3CCc4c(c(C(=O)NCc5cccc6ccccc56)nn4CCO)C3)c[nH]c2c1 [Compound 108]
- EC50 [1, 3]: 38.7 µM

SMILES: O=C(NCc1cccc2ccccc12)c1nn(CCO)c2c1CN(Cc1c[nH]c3cc(OCc4ccccc4)ccc13)CC2 [Compound 113]
- EC50 [1, 3]: 72.1 µM

SMILES: O=C(NCc1cccc2ccccc12)c1nn(CCO)c2c1CN(CCc1ccccc1)CC2 [Compound 116]
- EC50 [1, 3]: 230 µM

SMILES: O=C(NCc1cccc2ccccc12)c1nn(CCO)c2c1CN(Cc1c[nH]c3c(C(=O)O)cccc13)CC2 [Compound 117]
- EC50 [1, 3]: 391 µM

SMILES: Cc1ccc(CCN2CCc3c(c(C(=O)NCc4cccc5ccccc45)nn3CCO)C2)cc1 [Compound 118]
- EC50 [1, 3]: 632 µM

SMILES: CCOC(=O)CN(Cc1cccc2ccccc12)C(=O)c1nn(CCO)c2c1CN(Cc1ccc(OC)c3ccccc13)CC2 [Compound 121]
- IC50 [2]: 5 µM

SMILES: COc1ccc(CN2CCc3c(c(C(=O)NCc4cccc5ccccc45)nn3CCC(C)(C)C)C2)c2ccccc12 [Compound 124]
- IC50 [2]: 3.5 µM

— US10138242B2, “Pyrazolopyridine derivatives and their use in therapy” (HELMHOLTZ ZENTRUM MUENCHEN—DEUTSCHES FORSCHUNGSZENTRUM FUER …, priority 2015, dated 2018)
